Tests used:
[1] = tested on: Collagenase-1 (Matrix Metalloproteinase-1, MMP-1); assay: Inhibition of UV-induced Collagenase-1 (MMP-1) production in human fibroblasts (ELISA kit); assay type: cell-based; conditions: 15 mJ UV, 20 μM flavones, 20 μg/ml ethanol extract, FIG. 11
Description: (§1) Firstly, human fibroblasts were placed in a 96-well microtiter plate (5,000 cells/well) containing DMEM (Dulbecco's Modified Eagle's Media) which comprises 2.5% bovine fetal serum, and cultured until they reached a growth rate of around 90%. Then, the cells were treated for 24 hours in serum-free DMEM containing 20 μM of 5,7-dimethoxyflavone, 20 μM 5,7,4′-trimethoxyflavone, 20 μM 3,5,7,3′,4′-pentamethoxyflavone and 20 μg/ml of the ethanol extract of Kaempferia parviflora of Examples 1-4, respectively, and followed by the exposure to 15 mJ of UV. Subsequently, the cells were additionally treated with serum-free DMEM containing 20 μM of 5,7-dimethoxyflavone, 20 μM 5,7,4′-trimethoxyflavone, 20 μM 3,5,7,3′,4′-pentamethoxyflavone and 20 μg/ml of the ethanol extract of Kaempferia parviflora of Examples 1-4, respectively. After 24 hours, the cell culture was collected and centrifuged to obtain the supernatant.
For the resulting supernatant, the degree of Collagenase-1 (MMP-1) production was observed by Collagenase-1 Measurement Kit (QIA55, Merch & Co., USA). Firstly, the above obtained cell culture was placed in a 96-well plate evenly coated with primary antibodies against Collagenase-1 (MMP-1), followed by antigen-antibody reaction for 2 hours at room temperature. After 2 hours, primary antibodies against collagen with fluorescence were added to the said 96-well plate for 1 hour. After 1 hour, a substance inducing color formation was added and left for 30 minutes at room temperature. Then, a termination buffer was added to discontinue the color formation, resulting in the formation of yellow color. The degree of yellow color varied depending on the degree of the said reaction process. Absorbance of the 96-well plate showing yellow color was measured with an absorptiometer at 450 nm.

[2] = tested on: Procollagen Type-I C Peptide (PIP); assay: Enhancing effect on collagen production (Procollagen Type-I C Peptide ELISA) in UV-exposed human fibroblasts; assay type: cell-based; conditions: 15 mJ UV, 20 μM flavones, 20 μg/ml ethanol extract, PIP in supernatant
Description: as §1, with “supernatant. For the obtained supernatant, the production of Procollagen Type-I C Peptide (PIP), an indicator of collagen production, was quantitatively measured by ELISA kit (MK101, Takara Bio Ink., Japan) so as to observe their effect on collagen production.” for “supernatant.”
Firstly, antibody-PIP conjugates tagged to peroxidase were added to a 96-well plate evenly coated with mouse monoclonal antibodies against Procollagen. Then, the above obtained cell culture was added and reacted for 3 hours in an incubator, followed by the addition of substrate solution for color formation. Upon staying for 15 minutes at room temperature, the reaction was ended after the addition of reaction termination solution. Absorbance was measured with an absorptiometer at 450 nm.

[3] = tested on: hairless mice (Hos: HR-1); assay: In vivo improvement of UV-induced wrinkles, application onto the skin (skin replicas, Skin Visiometer); conditions: UV-exposed hairless mice; for wrinkle formation (skin replicas) in comparison with UV-treated Group: 50 μL applied onto the back every day for 8 weeks, FIG. 12; for Rt, Rm, Rz and Ra values (degree of wrinkle formation): skin application for 8 weeks, p<0.05, FIGS. 13A-13D
Description: (§2) Forty eight (48) 6-week-old female hairless mice (Hos: HR-1) were accustomed for a week and randomly divided into six (6) groups, eight (8) mice per each group. The hairless mice were exposed to UV for 8 weeks. UV irradiation was carried out 3 times a week, while the amount of UV irradiation was increased from 1 MED (1 MED=50 mJ/cm^2) to 4 MED which was then kept until the end of the test. Test groups were divided into a total of six groups, i.e. Non UV-treated Group, UV-treated Group, UV+5,7-dimethoxyflavone-treated Group, UV+5,7,4′-trimethoxyflavone-treated Group, UV+3,5,7,3′,4′-pentamethoxyflavone-treated Group, and UV+ethanol extract of Kaempferia parviflora-treated Group. Each sample was dissolved in a mixture solvent of ethanol and polyethylene glycol (7:3, v/v), and 50 μL of each sample was applied onto the back of the mice every day for 8 weeks. For the Non UV-treated group and the UV-treated group, 50 μL of a mixture of ethanol and polyethylene glycol (7:3, v/v) was applied. In order to test the preventative effect of wrinkle formation, skin replicas were taken using silicone polymer (SILFLO Impression Material, Flexico, England). The image files of the skin replicas were subjected to wrinkle evaluation using the computer imaging analysis system, i.e. Skin Visiometer SV 600 software (Courage+Khazaha Electronic, Kln, Germany). Rt, Rm, Rz and Ra values (Rt: the distance from the highest and lowest portions on the skin surface, Rm: the maximum Rt value among five (5) measurements, Rz: the mean Rt value of five measurements, Ra: the arithmetic mean value of surface roughness) were determined The results are shown in FIGS. 12 and 13A to 13D.

[4] = tested on: hairless mice (Hos: HR-1); assay: In vivo improvement of UV-induced wrinkles, oral administration (skin replicas, Skin Visiometer); conditions: UV-exposed hairless mice, oral daily for 8 weeks, flavones 50 mg/kg/day, extract 200 mg/kg/day; for wrinkle formation (skin replicas) compared with UV-treated Group: FIG. 14; for Rt, Rm, Rz and Ra values (degree of wrinkle formation): p<0.05, FIGS. 15A-15D
Description: (§3) To the hairless mice exposed to UV in Example 7-1,5,7-dimethoxyflavone (50 mg/kg/day), 5,7,4′-trimethoxyflavone (50 mg/kg/day), 3,5,7,3′,4′-pentamethoxyflavone (50 mg/kg/day) and the ethanol extract of Kaempferia parviflora (200 mg/kg/day) dissolved in 0.5% carboxymethyl cellulose solution containing 5% Tween 80 were orally administered daily for 8 weeks. For the control groups (Non UV-treated Group and UV-treated Group), 0.5% carboxymethyl cellulose solution was administered. In order to test the preventative effect of wrinkle formation, skin replicas were taken using silicone polymer (SILFLO Impression Material, Flexico, England). The image files of the skin replicas were subjected to wrinkle evaluation using the computer imaging analysis system, i.e. Skin Visiometer SV 600 software (Courage+Khazaha Electronic, Kln, Germany).

[5] = tested on: hairless mice (Hos: HR-1); assay: UV-induced Trans-Epidermal Water Loss (TEWL), application onto the skin (Tewameter); assay type: in vivo; conditions: UV-exposed hairless mice, skin application for 8 weeks; back skin
Description: as §2
By using Tewameter (TM 300, Courage+Khazaha Electronic, Kln, Germany), Trans-Epidermal Water Loss (TEWL) was measured on the back of the mice in Example 7-1.

[6] = tested on: hairless mice (Hos: HR-1); assay: UV-induced Trans-Epidermal Water Loss (TEWL), oral administration (Tewameter); assay type: in vivo; conditions: UV-exposed hairless mice, oral daily for 8 weeks; flavones 50 mg/kg/day, extract 200 mg/kg/day
Description: as §3
By using Tewameter (TM 300, Courage+Khazaha Electronic, Kln, Germany), Trans-Epidermal Water Loss (TEWL) was measured on the back of the mice in Example 7-2.

[7] = tested on: hairless mice (Hos: HR-1); assay: Skin elasticity, application onto the skin (Cutometer); assay type: in vivo; conditions: UV-exposed hairless mice, skin application for 8 weeks; Non UV-treated Group = 100
Description: as §2
By using Cutometer (MPA 580, Courage+Khazaha Electronic, Germany), skin elasticity was measured on the back of the mice in the above Example 7-1 and compared with Non UV-treated Group.

[8] = tested on: hairless mice (Hos: HR-1); assay: Skin elasticity, oral administration (Cutometer); assay type: in vivo; conditions: UV-exposed hairless mice, oral daily for 8 weeks; flavones 50 mg/kg/day, extract 200 mg/kg/day; Non UV-treated Group = 100
Description: as §3
By using Cutometer (MPA 580, Courage+Khazaha Electronic, Germany), skin elasticity was measured on the back of the mice in Example 7-2 and compared with Non UV-treated Group.

Compound | inhibition of Collagenase-1 (MMP-1) activity induced by UV light [1] | Content of Collagen [2] [ng/10^5 cell] | wrinkle formation (skin replicas) in comparison with UV-treated Group [3] | Rt, Rm, Rz and Ra values (degree of wrinkle formation) [3] | wrinkle formation (skin replicas) compared with UV-treated Group [4] | Rt, Rm, Rz and Ra values (degree of wrinkle formation) [4] | TEWL [5] [g/m^2/hr] | TEWL [6] [g/m^2/hr] | Degree of skin elasticity [7] [%] | Degree of skin elasticity [8] [%]
COc1cc(OC)c2c(=O)cc(-c3ccccc3)oc2c1 [5,7-dimethoxyflavone] | excellent for inhibiting Collagenase-1 (MMP-1) activity | 236.7 | remarkable decrease in wrinkle formation | significantly reduced | remarkable decrease in wrinkle formation | significantly reduced | 19.4 | 16.4 | 83.5 | 77.3
COc1cc(OC)c2c(=O)c(OC)c(-c3ccc(OC)c(OC)c3)oc2c1 [3,5,7,3′,4′-pentamethoxyflavone] | excellent for inhibiting Collagenase-1 (MMP-1) activity | 226.5 | remarkable decrease in wrinkle formation | significantly reduced | remarkable decrease in wrinkle formation | significantly reduced | 22.0 | 20.3 | 72.3 | 81.7
COc1ccc(-c2cc(=O)c3c(OC)cc(OC)cc3o2)cc1 [5,7,4′-trimethoxyflavone] | excellent for inhibiting Collagenase-1 (MMP-1) activity | 230.0 | remarkable decrease in wrinkle formation | significantly reduced | remarkable decrease in wrinkle formation | significantly reduced | 24.8 | 19.6 | 76.9 | 85.6

From patent publication US20140148504A1, “NOVEL USE OF FLAVONE-BASED COMPOUND” (Industry-Academic Cooperation Foundation, Younsei University, priority 2011, published 2014)
